Source: PubChem BioAssay (NCI)
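96-well plates; 48 h exposure; 5 concentrations. Endpoints by linear interpolation between flanking doses. Not reached: highest tested concentration assigned. GI50 marks 50% less growth. TGI denotes the concentration required for complete inhibition of growth.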

Tests used:
Assay in all cases: inhibition of tumour cell growth, NCI panel, 48 h
[1] = test system: MALME-3M melanoma
[2] = test system: SNB-19 CNS
[3] = test system: EKVX NSCLC
[4] = test system: RXF 393 renal
[5] = test system: OVCAR-8 ovarian
[6] = test system: HCC-2998 colon
[7] = test system: SF-539 CNS
[8] = test system: NCI-H23 lung
[9] = test system: HT29 colon
[10] = test system: A498 renal

Compound | GI50 [1] [µM] | TGI [1] [µM] | GI50 [2] [µM] | TGI [2] [µM] | GI50 [3] [µM] | TGI [3] [µM] | GI50 [4] [µM] | TGI [4] [µM] | GI50 [5] [µM] | TGI [5] [µM] | GI50 [6] [µM] | TGI [6] [µM] | GI50 [7] [µM] | TGI [7] [µM] | GI50 [8] [µM] | TGI [8] [µM] | GI50 [9] [µM] | TGI [9] [µM] | GI50 [10] [µM] | TGI [10] [µM]
CN(C)CCN1C(=O)c2cccc3c(N)ccc(c23)C1=O | 7.74 | > 25 | 14.3 | > 25 | 14.2 | > 25 | 7.91 | 24.8 | 9.53 | > 25 | 17.8 | > 25 | 9.14 | > 25 | 15 | > 25 | 9.06 | > 25 | 11.5 | > 25
CCOc1ccccc1NC(=O)C(=O)C(C(=O)c1ccc2ccccc2c1)C1OC(=O)c2ccccc21 (stereo not given) |  | 30.2 |  | 22 |  | 77.3 |  | 9.05 |  | 38.8 |  | 22.9 |  | 24.8 |  | 26.2 |  | 76.4 |  | 30.5
C[n+]1c2cc(N)ccc2cc2ccc(N)cc21 (tested in a mixture with another compound) | 0.258 | 1.04 | 0.578 | 3.94 | 0.261 | 1.77 | 1.12 | 3.41 | 0.377 | 2.23 | 0.221 | 1.44 | 0.498 | 6.22 | 0.292 | 1.43 | 0.431 | 3.87 | 0.133 | 0.515
C[C@@H]1[C@H]2[C@H](C=C3[C@@H]4CC[C@H]5Cc6nc7c(nc6C[C@]5(C)[C@H]4C[C@@H](O)[C@@]32C)C[C@@H]2CC[C@H]3C4=C[C@@H]5O[C@@]6(CC[C@](C)(CO)O6)[C@@H](C)[C@@]5(O)[C@@]4(C)[C@H](O)C[C@@H]3[C@@]2(C)C7)O[C@]12CCC(C)(C)O2 | 1.58 | 22.7 | 0.653 | 7.28 | 0.377 | 14.1 | 0.0706 | 0.333 | 10.1 | > 100 | 16 | 56.5 | 0.114 | 4.08 | 1.61 | 23.1 | 0.34 | 2.47 | 0.236 | 0.543
O=C(N[C@@H]1C=CCC[C@@H]1c1ccccc1)OCc1ccccc1 |  | 37 |  | 99.6 |  | 72.5 |  | 35.9 |  | 42.6 |  | 49.3 |  | 33.5 |  | 51.3 |  | 53.1 |  | 39
COc1cc2cn3c4ccc(O)cc4nc(N)c3c2cc1OC | 0.792 | 16.8 | 0.211 | 16.7 | 2.79 | 15.4 | 0.283 | 2.5 | 0.773 | 12.6 | 0.606 | 7.29 | 0.2 | 2.39 | 0.968 | 4.88 | 0.714 | 4.57 | 0.141 | 1.06
Clc1ccccc1-c1nc(-c2ccncc2)no1 |  | > 100 |  | > 100 |  | > 100 |  | > 100 |  | > 100 |  | 84.8 |  | > 100 |  | > 100 |  | > 100 |  | > 100
Cc1cc(S(N)(=O)=O)c(S/C(=N\Nc2ccc([N+](=O)[O-])cc2)c2ccc(O)cc2)cc1Cl | 1.73 | 4.37 | 4.46 | 16.1 | 6.82 | 22.6 | 0.676 | 3.5 | 5.72 | 21.7 | 1.65 | 3.87 | 3.39 | 8.74 | 2.42 | 7.54 | 3.29 | 7.35 | 7.56 | 20.5
Clc1ccccc1C1N2CCCCC2[C@@H]2c3[nH]c4ccccc4c3CCN12 (stereo not given in full) |  | 22.1 |  | 82.7 |  | > 100 |  | 40.2 |  | 39.9 |  | 36.9 |  | 30.9 |  | 45.6 |  | 31.8 |  | 30.3
Cc1ccc(Nc2[nH]c(C(=O)c3ccc(Cl)cc3)c(N)c2C(=S)Nc2ccccc2)nc1 | 13.7 | 42 | 39.4 | > 100 | 35.5 | > 100 | 35.9 | > 100 | 22 | 97.3 | 15.9 | 33.2 | 19.9 | 44.8 | 35.1 | > 100 | 57.8 | > 100 | 23.4 | 61.8
CSC1=Nc2c(c(C)c(-c3ccccc3)n2CCCCl)C2=NC(=O)CN12 | 8.38 | 23.5 | 3.97 | 17.8 | 6.89 | 31 | 11.3 | 29.8 | 16.3 | 72.8 | 4.52 | 19.7 | 3.42 | 14 | 8.26 | 46.3 | 3.85 | 19.5 | 3.89 | 15
COc1ccc(C(=O)Nc2ccc(S(=O)(=O)NCC(=O)O)cc2)cc1 |  | > 100 |  | > 100 |  | > 100 |  | > 100 |  | > 100 |  | > 100 |  | > 100 |  | > 100 |  | > 100 |  | > 100
CCOC(=O)C12CCSC1C1(C#N)C(C#N)=CC2(N=P(c2ccccc2)(c2ccccc2)c2ccccc2)n2c(=O)n(-c3ccccc3)c(=O)n21 (stereo not given) |  | > 100 |  | > 100 |  | > 100 |  | > 100 |  | > 100 |  | > 100 |  | > 100 |  | > 100 |  | > 100 |  | > 100
CN(C)CCNC(=O)c1cccc2ccc(-c3cccnc3)nc12 |  | 16.8 |  | 22.6 |  | 19.8 |  | 19.5 |  | > 100 |  | 18 |  | 23.7 |  | 16.1 |  | 31.9 |  | 8.22
O=c1c2[nH]c3ccccc3c2nc2n1CCS2 | 69.9 | > 100 | > 100 | > 100 | 23.6 | > 100 | > 100 | > 100 | > 100 | > 100 | > 100 | > 100 | 85 | > 100 | > 100 | > 100 | > 100 | > 100 | 56 | > 100
